# Experiments:
# Experiment in all cases: relative viability (nuclei count vs DMSO), 5 days (fraction); higher = more cells survive
# [1] = compound: C(C(=O)C(=O)O)Br [Bromopyruvate] + COc1cc2c(Oc3ccc(NC(=O)C4(C(=O)Nc5ccc(F)cc5)CC4)cc3F)ccnc2cc1OCCCN1CCOCC1 [Foretinib] (partner 0.25 µM)
# In short: (§1)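 Lung cancer cell lines in 1536-well plates got either a single drug or a fixed anchor-drug dose together with five library-drug doses (not always all listed) in √10 steps, by pin tool, on the day after seeding. Nuclei were counted after 5 days, and relative viability is the treated-to-vehicle ratio of nuclei counts. Values are medians of duplicate plates.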
# [2] = compound: C(C(=O)C(=O)O)Br [Bromopyruvate] + O=C(CCCCCCC(=O)Nc1ccccc1)NO [Vorinostat] (partner 1 µM)
# In short: as §1
# [3] = compound: CC(O)(CS(=O)(=O)c1ccc(F)cc1)C(=O)Nc1ccc(C#N)c(C(F)(F)F)c1 [Bicalutamide] + CC(=O)Nc1cccc(-n2c(=O)n(C3CC3)c(=O)c3c(Nc4ccc(I)cc4F)n(C)c(=O)c(C)c32)c1 [Trametinib] (partner 0.02 µM)
# In short: as §1
# [4] = compound: CC(O)(CS(=O)(=O)c1ccc(F)cc1)C(=O)Nc1ccc(C#N)c(C(F)(F)F)c1 [Bicalutamide] + CC1(C)CCC(c2ccc(Cl)cc2)=C(CN2CCN(c3ccc(C(=O)NS(=O)(=O)c4ccc(N[C@H](CCN5CCOCC5)CSc5ccccc5)c(S(=O)(=O)C(F)(F)F)c4)cc3)CC2)C1 [Navitoclax] (partner 0.5 µM)
# In short: as §1
Cell Line,relative viability ([1]; first compound 1 µM),relative viability ([1]; first compound 3.162 µM),relative viability ([1]; first compound 10 µM),relative viability ([1]; first compound 31.62 µM),relative viability ([1]; first compound 100 µM),relative viability ([2]; first compound 1 µM),relative viability ([2]; first compound 3.162 µM),relative viability ([2]; first compound 10 µM),relative viability ([2]; first compound 31.62 µM),relative viability ([2]; first compound 100 µM),relative viability ([3]; first compound 0.08 µM),relative viability ([3]; first compound 0.253 µM),relative viability ([3]; first compound 0.8 µM),relative viability ([3]; first compound 2.53 µM),relative viability ([4]; first compound 0.08 µM),relative viability ([4]; first compound 0.253 µM),relative viability ([4]; first compound 0.8 µM),relative viability ([4]; first compound 2.53 µM)
LCLC-97TM1,0.843,0.916,0.917,0.965,1.02,0.666,0.671,0.887,0.601,0.655,0.214,0.177,0.212,0.188,0.558,0.379,0.573,0.572
LK-2,0.865,1.35,1.57,1.12,0.894,0.333,0.203,0.218,0.297,0.165,0.652,0.672,1.15,0.742,0.844,0.798,1.18,0.841
LOU-NH91,0.945,0.903,0.999,0.92,0.984,1.07,0.961,0.912,1,1,0.755,0.724,0.82,0.791,0.676,0.545,0.865,0.818
LU99A,0.834,0.81,0.812,0.773,0.846,0.46,0.526,0.567,0.532,0.409,0.529,0.445,0.6,0.495,0.756,0.779,1.01,0.742
LXF-289,1.02,0.997,0.965,1.01,1.04,0.777,0.796,0.714,0.81,0.677,0.667,0.636,0.734,0.656,0.951,0.952,0.999,0.931
NCI-H23,0.895,0.851,0.983,0.885,0.296,0.569,0.639,0.64,0.538,0.39,0.418,0.317,0.434,0.399,0.86,0.642,0.949,0.754
NCI-H322M,0.978,0.964,1.02,0.99,1.05,1.04,0.844,0.739,0.8,0.88,0.537,0.541,0.502,0.503,1.3,1.18,1.28,1.22
NCI-H441,1.08,1.02,0.986,0.984,0.947,0.828,0.856,0.761,0.623,0.607,0.492,0.374,0.497,0.406,0.551,–,0.622,0.518
NCI-H460,0.928,1.01,1.15,1.02,1,0.74,0.71,0.599,0.524,0.565,0.139,0.129,0.128,0.129,1.13,1.1,1.39,1.22
NCI-H520,0.83,0.805,0.646,0.859,0.895,0.543,0.745,0.706,0.731,0.469,0.725,0.363,0.939,0.432,0.97,1.1,1.16,1.13
NCI-H596,0.86,0.946,1.02,0.685,0.232,0.572,0.633,0.628,0.584,0.757,0.76,0.765,0.994,0.952,1.03,0.847,1.24,1.15
NCI-H647,1.26,1.2,1.31,1.21,1.06,0.559,0.724,0.399,0.51,0.334,0.482,0.429,0.721,0.414,1.15,1.09,1.46,1.18
NCI-H727,0.9,1.08,0.728,0.93,0.802,1.28,1.26,1.24,0.886,1.23,0.38,0.381,0.414,0.399,0.457,0.415,0.405,0.373
NCI-H838,1.03,1.08,1.07,1.05,1.03,0.7,0.684,0.652,0.631,0.607,0.553,0.419,0.661,0.293,1.1,1.07,1.25,0.854
NCI-H1355,0.954,0.966,1.08,0.909,0.995,0.668,0.641,0.646,0.607,0.606,0.432,0.383,0.447,0.472,1.06,0.919,0.928,0.983
NCI-H1395,0.975,0.838,1.14,1.03,1.01,1.03,0.791,0.649,0.683,0.681,0.986,1.04,1.12,0.948,1.1,1.1,1.55,1.1
NCI-H1437,1.26,1.28,1.27,1.28,1.25,0.918,0.672,0.74,0.694,0.529,0.598,0.475,0.612,0.476,1.1,1.17,1.14,1.11
NCI-H1650,1.16,1.25,1.12,1.42,0.747,0.549,0.388,0.505,0.54,0.304,0.586,0.529,0.713,0.473,1.31,1.19,1.16,1.22

Cell Line,relative viability ([1]; first compound 1 µM),relative viability ([1]; first compound 3.162 µM),relative viability ([1]; first compound 10 µM),relative viability ([1]; first compound 31.62 µM),relative viability ([1]; first compound 100 µM),relative viability ([2]; first compound 1 µM),relative viability ([2]; first compound 3.162 µM),relative viability ([2]; first compound 10 µM),relative viability ([2]; first compound 31.62 µM),relative viability ([2]; first compound 100 µM),relative viability ([3]; first compound 0.08 µM),relative viability ([3]; first compound 0.253 µM),relative viability ([3]; first compound 0.8 µM),relative viability ([3]; first compound 2.53 µM),relative viability ([4]; first compound 0.08 µM),relative viability ([4]; first compound 0.253 µM),relative viability ([4]; first compound 0.8 µM),relative viability ([4]; first compound 2.53 µM)
NCI-H1651,0.728,0.902,0.904,0.849,0.91,0.612,0.573,0.578,0.466,0.345,0.836,0.773,0.932,0.83,0.89,0.957,0.956,0.951
NCI-H1666,0.994,1.05,1.03,1,0.936,1.01,0.978,1.08,0.931,0.858,0.926,0.838,0.866,0.959,0.939,1.14,0.889,0.93
NCI-H1734,0.888,0.923,1.03,0.807,0.824,0.762,0.86,0.858,0.736,0.724,0.709,0.531,0.681,0.663,0.862,0.719,1.13,0.786
NCI-H1755,0.936,0.923,0.925,0.909,0.937,0.862,0.819,0.682,0.768,0.651,0.738,0.774,0.776,0.751,0.98,0.956,1.02,0.961
NCI-H1793,0.718,0.821,0.833,0.736,0.684,0.792,0.914,0.794,0.727,0.634,0.382,–,0.448,0.439,0.516,0.353,0.479,0.512
NCI-H1915,1.03,1.08,1.09,1,1.12,0.5,0.495,0.529,0.462,0.423,0.338,0.288,0.286,0.229,0.815,0.76,0.804,0.812
NCI-H1944,0.954,0.83,1.03,0.874,0.913,0.592,0.647,0.582,0.568,0.654,0.408,0.393,0.421,0.397,1.04,1.08,1.08,1.03
NCI-H1975,0.988,1.1,1.03,0.972,0.927,0.741,0.761,0.687,0.675,0.582,0.323,0.412,0.386,0.339,0.951,1.05,1.23,1.12
NCI-H1993,0.84,0.817,0.939,0.764,0.774,0.19,0.862,0.83,0.72,0.842,0.492,0.519,0.536,0.56,–,0.896,0.912,1.02
NCI-H2009,1.22,1.25,1.19,1.2,0.883,0.72,0.682,0.622,0.546,0.266,0.296,0.225,0.296,0.248,1.29,1.24,1.14,1.08
NCI-H2023,0.716,0.776,0.813,0.985,0.806,0.547,0.687,0.619,0.464,0.615,0.547,0.52,0.556,0.382,1.08,1.04,1.06,0.945
NCI-H2085,0.865,1.06,0.964,0.779,0.465,0.769,0.81,0.798,0.764,0.862,0.513,0.554,0.535,0.404,1.19,1.17,1.22,0.902
NCI-H2087,1.13,1.17,0.97,1.12,0.595,0.814,0.551,0.751,0.528,0.375,0.214,0.191,0.178,0.202,1.15,1.09,1.1,0.974
NCI-H2126,1.17,1.39,1.2,1.26,1.31,0.82,0.832,0.886,0.829,0.639,0.546,0.523,0.545,0.626,0.929,0.806,0.873,0.847
NCI-H2170,0.961,1.01,1.07,0.995,0.966,0.911,0.853,0.79,0.802,0.705,0.892,0.861,0.97,0.931,0.553,0.506,0.661,0.591
NCI-H2228,0.798,0.82,0.941,0.754,0.794,0.454,0.723,0.764,0.581,0.372,0.39,0.54,0.616,0.34,0.636,0.863,0.856,0.959
NCI-H2347,0.925,1.01,1.22,0.721,0.982,0.645,0.541,0.542,0.495,0.473,0.283,0.287,0.307,0.249,0.853,0.795,0.848,0.774

# Source: the supplement of paper PMC10307832
